Assay [1] deals with T1, zebrafish α7 nAChR (Danio rerio, UniProt Q800C7). The assay is described as follows: Agonist-evoked responses, two-electrode voltage clamp in Xenopus oocytes. Particulars: for Activation of fish α7 nAChR: prototypical α7-selective agonists; for Emax: read-out: Imax; for Agonist type compared to ACh: α7. The class given is cell-based. (In general: Two-electrode voltage clamp is typically applied to oocytes expressing channels or transporters.)

The subject of assay [2] is zebrafish heteromeric nAChR subtypes (α3β4, α1β1bεδ, α2β2, α4β2). The class given is cell-based, zebrafish (Danio rerio). Particulars: co-application, 30 µM 4OH-GTS-21 and tropane, 300 µM choline.
The target in assay [3] is T2, zebrafish α4β2 nAChR (Danio rerio, UniProt E7F4S7+Q0PJT8). The assay can be described thus: Agonist-evoked responses, two-electrode voltage clamp in Xenopus oocytes. The conditions noted are these: for Activation of α4β2 receptors by probe concentration: 30 µM 4OH-GTS-21 and tropane, 300 µM choline; for Emax: read-out: Imax. The class given is cell-based.
Assay [4] deals with T3, zebrafish α3β4F106Y nAChR (Danio rerio, UniProt A0A0R4ISQ3+A0A8M1QHJ5, F140Y). The assay can be described thus: cell-based.
Assay [5] deals with T4, zebrafish α3β4 nAChR (Danio rerio, UniProt A0A0R4ISQ3+A0A8M1QHJ5). The assay is described as follows: Agonist-evoked responses, two-electrode voltage clamp in Xenopus oocytes. The class given is cell-based. The conditions noted are these: for Emax: read-out: Imax; for Agonist type compared to ACh: α3β4.
The subject of assay [6] is zebrafish. The conditions noted are these: cited from earlier work.
The subject of assay [7] is zebrafish. The conditions noted are these: previous work; cited from earlier work.
The subject of another assay is human α7 nAChR. The conditions noted are these: read-out: EC50 for human α7; used as probe concentration; cited from earlier work.
Assay [8] deals with T3, zebrafish α3β4F106Y nAChR.
The target in assay [9] is T5, zebrafish muscle α1β1bεδ nAChR (Danio rerio, UniProt A2BG85+G1FMP8+Q75XT1+Q98880). The conditions noted are these: for EC50: peak current amplitude.
For assay [10], the target named is T6, zebrafish α2β2 nAChR (Danio rerio, UniProt A0ACM8Q9T8+E7F4S7). The assay is described as follows: cell-based.
For assay [11], the target named is T5, zebrafish muscle α1β1bεδ nAChR. The assay is described as follows: cell-based. The conditions noted are these: read-out: Imax.
For assay [12], the target named is T6, zebrafish α2β2 nAChR. The assay can be described thus: cell-based. The source holds these as a separate data set.
Assay [13] concerns zebrafish. Particulars: given 5 minutes before the task (not if 40 minutes prior); cited from earlier work.
The target in assay [14] is T2, zebrafish α4β2 nAChR. Particulars: α4β2, ACh control after normal washout.
Assay [15] addresses T6, zebrafish α2β2 nAChR. Particulars: α2β2, ACh control after normal washout.
Assay [16] concerns the target T1, zebrafish α7 nAChR. Particulars: α7, data not shown.
Assay [17] has as its system zebrafish. Particulars: cited from earlier work. This is another data set of the same source.
Assay [18] addresses T1, zebrafish α7 nAChR. The assay can be described thus: cell-based.
Assay [19] addresses T4, zebrafish α3β4 nAChR. The assay can be described thus: Inhibition of ACh-evoked responses by co-applied mecamylamine in Xenopus oocytes. The class given is cell-based.
In assay [20] the test system is human and zebrafish α3β4 and α4β2 nAChR. The class given is cell-based. Particulars: α3β4 and α4β2, repeated application protocol, low concentration of mecamylamine.
Another assay has as its system rat α3β4 nAChR. The conditions noted are these: rat α3β4, co-application of 100 µM ACh with 3 µM mecamylamine; cited from earlier work.
Assay [21] has as its target T5, zebrafish muscle α1β1bεδ nAChR. The conditions noted are these: for IC50: α1β1bεδ, co-application with 30 µM ACh.
Assay [22] deals with zebrafish. Particulars: cited from earlier work. The source holds these as a separate data set.

Where two headings read alike, the source gives them in different places.

Take `COc1cc(O)ccc1/C=C1\CCCN=C1c1cccnc1` [4OH-GTS-21, 3-(4-hydroxy, 2-methoxybenzylidene)anabaseine]: the “Activation of fish α7 nAChR” value on zebrafish α7 nAChR [1] is reported as “activate”. Besides, the “Inhibition of ACh-evoked responses of heteromeric nAChR subtypes” value (shortened to “Inhibition … of heteromeric nAChR subtypes”) in assay [2] is recorded as “inhibited all of the heteromeric receptors”. Further, the “Activation of α4β2 receptors by probe concentration” value (“Activation of α4β2 receptors” below) at zebrafish α4β2 nAChR [3] is recorded as “evoked significant responses”.
Consider `CC(=O)OCC[N+](C)(C)C` [ACh, acetylcholine], for which the EC50 – broadly, the concentration giving half of the maximal effect – in assay [4] worked out at 134 ± 5 µM; at zebrafish α7 nAChR [1] it was 39 ± 3 µM; at zebrafish α3β4 nAChR [5], 73 ± 3 µM.
On to `CO[C@H]1CC=C2CCN3CCC4=C(CC(=O)OC4)[C@]23C1` [DHβE, dihydro-beta-erythroidine], for which the “Effect on anxiolytic effects of nicotine” value in the assay on zebrafish [6] is “blocked”. Moreover, the “Effect on nicotine-induced increase in swimming activity” value in the assay on zebrafish [7] is listed as “blocked”.
For `CCN1C[C@]2(COC(=O)c3ccccc3N3C(=O)C[C@H](C)C3=O)CC[C@H](OC)[C@@]34[C@@H]5C[C@H]6[C@H](OC)[C@@H]5[C@](O)(C[C@@H]6OC)[C@@](O)([C@@H](OC)[C@H]23)[C@@H]14` [MLA, methyllycaconitine], in the assay with zebrafish [6], the “Effect on anxiolytic effects of nicotine” value was “blocked”. The “Effect on nicotine-induced increase in swimming activity” value in the assay on zebrafish [7] is “blocked”.
As to `C[N+](C)(C)CCO` [choline], the “Activation of fish α7 nAChR” value on zebrafish α7 nAChR [1] was “activate”. For the same molecule, in the assay with human α7 nAChR, the EC50 is 300 µM. The “Inhibition … of heteromeric nAChR subtypes” value in [2] is reported as “relatively ineffective”. At zebrafish α4β2 nAChR [3], the “Activation of α4β2 receptors” value is “evoked significant responses”.
As to `O=c1cccc2n1C[C@@H]1CNC[C@H]2C1` [cytisine], in assay [8] (100 µM cytisine, relative to 100 µM ACh control responses), the “Relative amplitude of responses versus wild-type fish α3β4” value was “significantly larger”. Also, in assay [8] (expressed relative to respective ACh maximums), the “Effect of the F106Y mutation on efficacy” value is recorded as “no significant effect”. Also, the EC50 at zebrafish α7 nAChR [1] amounted to 15 ± 3 µM; in assay [9] it was 460 ± 20 µM; on zebrafish α2β2 nAChR [10], 4.1 ± 0.3 µM; on zebrafish α3β4 nAChR [5] it was 11 ± 1 µM. Besides, the Emax on zebrafish α7 nAChR [1] stood at 116 ± 6%; on zebrafish α2β2 nAChR [10] (read-out: Imax), 9 ± 1%; at zebrafish α3β4 nAChR [5], 12 ± 0.2%; in assay [11] it was 13 ± 0.3%; on zebrafish α4β2 nAChR [3], 26 ± 1%. Further, the “Agonist type compared to ACh” value at zebrafish α7 nAChR [1] is “full agonist”; at zebrafish α3β4 nAChR [5], “relatively weak partial agonist”.
With `CNC1(C)C2CCC(C2)C1(C)C` (stereo not shown) [mecamylamine], the IC50 (in general, the midpoint of a concentration-inhibition curve) on zebrafish α2β2 nAChR [12] (Net charge IC50, α2β2, co-application with 30 µM ACh) is 3.5 ± 1.3 µM; at zebrafish α2β2 nAChR [12] (Peak current IC50, α2β2, co-application with 30 µM ACh) it was 3 ± 0.7 µM; against zebrafish α7 nAChR [18] (Net charge IC50, α7, co-application with 60 µM ACh) it was 13 ± 3 µM; at zebrafish α7 nAChR [18] (Peak current IC50, α7, co-application with 60 µM ACh), 28 ± 11 µM; against zebrafish α3β4 nAChR [19] (Net charge IC50, α3β4, co-application with 100 µM ACh), 0.05 ± 0.01 µM; at zebrafish α3β4 nAChR [19] (Peak current IC50, α3β4, co-application with 100 µM ACh), 0.6 ± 0.1 µM. Also, the IC50 in assay [21] (read-out: Net charge IC50) stood at 0.6 ± 0.07 µM; in [21] (read-out: Peak current IC50), 1.8 ± 0.21 µM. Besides, the “Effect on anxiolytic effect of nicotine” value in the assay on zebrafish [6] (200 mg/l mecamylamine) is “blocked”. The “Effect on nicotine-induced improvement in spatial learning task” value in the assay with zebrafish [13] is on record as “blocked this nicotine-induced improvement”. Besides, the entries for the “Mecamylamine concentration giving significant (>25%) residual inhibition” value on zebrafish α4β2 nAChR [14] and on zebrafish α2β2 nAChR [15] were not below 30 nM and not below 300 nM, respectively. The Reversibility of inhibition entry is “readily reversible” on zebrafish α7 nAChR [16]; “rapidly reversible” at zebrafish α3β4 nAChR [19] (α3β4, 3 µM mecamylamine); “readily reversible” in assay [21] (muscle-type receptors). The “Effect on nicotine-induced increase of dihydroxyphenylacetic acid” value with zebrafish [17] is given as “blocked”. In [20], the “Inhibition of fish versus human receptor subtypes” value is “significantly greater (p < 0.01)”. Also, the “Residual inhibition of ACh control responses following washout” value in the assay with rat α3β4 nAChR was 60%.
Regarding `CN1CCC[C@H]1c1cccnc1` [nicotine], in the assay on zebrafish [6] (100 mg/l), the “Effect in fish model of anxiety” value is “anxiolytic”. The “Performance in delayed spatial alternation task” value in the assay on zebrafish [22] (high doses) was “impaired”; in the assay on zebrafish [22] (low doses (100 mg/l in the water)), “improved performance”. Moreover, the Dihydroxyphenylacetic acid levels result in the assay with zebrafish [17] was “increases dihydroxyphenylacetic acid levels”. In addition, the EC50 on zebrafish α7 nAChR [1] worked out at 27 ± 6 µM; in [9] it was 140 ± 50 µM; on zebrafish α3β4 nAChR [5], 13 ± 6 µM. For the same molecule, the Emax on zebrafish α7 nAChR [1] worked out at 75 ± 4%; at zebrafish α3β4 nAChR [5] it was 17 ± 2%; in assay [11] it was 13 ± 3%; at zebrafish α4β2 nAChR [3], 70 ± 10%. For the same molecule, the “Agonist type compared to ACh” value at zebrafish α7 nAChR [1] is recorded as “full agonist”; in assay [9], “partial agonist”; on zebrafish α3β4 nAChR [5], “partial agonist”; at zebrafish α4β2 nAChR [3] (α4β2) it was “partial agonist”. The Swimming activity entry in the assay with zebrafish [7] is reported as “increases swimming activity”.
With `CN1[C@@H]2CCC[C@H]1CC2` [tropane], on zebrafish α7 nAChR [1], the “Activation of fish α7 nAChR” value is “activate”. For the same molecule, in [2], the “Inhibition … of heteromeric nAChR subtypes” value is listed as “effective at inhibiting the neuronal heteromeric receptor subtypes”. The “Activation of α4β2 receptors” value on zebrafish α4β2 nAChR [3] is listed as “evoked significant responses”.

The values above are taken from publication PMC3372685 (Biochemical Pharmacology, 2012).
